Measurements reported in BigSolDB 2.1.

CC(C(=O)O)c1ccc(CC2CCCC2=O)cc1 (stereo not given)
solubility (mole fraction)
Details | 283.15 K | 288.15 K | 293.15 K | 298.15 K | 303.15 K | 308.15 K | 313.15 K | 318.15 K | 323.15 K | 328.15 K
in 1,4-dioxane | 0.154 | 0.171 | 0.19 | 0.214 | 0.246 | 0.272 | 0.304 | 0.339 | 0.378 | 0.408
in acetonitrile | 0.0234 | 0.0296 | 0.0364 | 0.0419 | 0.059 | 0.0847 | 0.113 | 0.166 | 0.233 | 0.318
in ethanol | 0.0573 | 0.0676 | 0.0717 | 0.0943 | 0.123 | 0.154 | 0.208 | 0.252 | 0.316 | 0.389
in ethyl acetate | 0.0521 | 0.0621 | 0.0752 | 0.0848 | 0.0996 | 0.13 | 0.162 | 0.19 | 0.244 | 0.301
in ethyl orthosilicate | 0.0247 | 0.0293 | 0.0325 | 0.0365 | 0.043 | 0.0491 | 0.0565 | 0.0694 | 0.0796 | 0.0991
in isobutyl acetate | 0.0261 | 0.0314 | 0.0357 | 0.0451 | 0.0583 | 0.0688 | 0.0913 | 0.116 | 0.144 | 0.191
in isopentyl acetate | 0.0253 | 0.0306 | 0.035 | 0.0448 | 0.0561 | 0.0674 | 0.0829 | 0.109 | 0.134 | 0.165
in isopropanol | 0.0589 | 0.0747 | 0.0874 | 0.0966 | 0.128 | 0.145 | 0.189 | 0.224 | 0.277 | 0.339
in isopropyl acetate | 0.0298 | 0.0373 | 0.0443 | 0.056 | 0.0694 | 0.0819 | 0.11 | 0.134 | 0.176 | 0.229
in methanol | 0.0694 | 0.0783 | 0.0897 | 0.118 | 0.163 | 0.216 | 0.283 | 0.364 | 0.496 | 0.628
in methyl acetate | 0.0568 | 0.0659 | 0.0797 | 0.0895 | 0.11 | 0.136 | 0.17 | 0.205 | 0.255 | 0.325
in n-butyl acetate | 0.0284 | 0.0338 | 0.0418 | 0.0527 | 0.0621 | 0.0764 | 0.096 | 0.122 | 0.156 | 0.205
in n-propanol | 0.0526 | 0.0643 | 0.0792 | 0.0905 | 0.116 | 0.139 | 0.184 | 0.223 | 0.269 | 0.338
in n-propyl acetate | 0.0384 | 0.0483 | 0.0529 | 0.0631 | 0.0814 | 0.0978 | 0.127 | 0.155 | 0.199 | 0.261
